Measurements from US20070281900A1, “COMPOSITIONS AND METHODS FOR LIPID AND POLYPEPTIDE BASED siRNA [sequence] [sequence]” (NASTECH PHARMACEUTICAL COMPANY INC., priority 2006, published 2007).
Peptide text beside a SMILES is read from it.

Tested on: 9L/LacZ cells
Test: Cell confluency as measure of effect of transfection condition on cell growth
Conditions: Qneg siRNA 100 nM, PN183 7 μM or PN73 2 μM where named, nontransfected cells 70%
Experimental: For each transfection mixture, 9L/LacZ cells (passage 8) were plated at density of 6.0×10^3 cells/well on a 96-well plate. […] The cationic lipid […]™ served as a positive transfection control. Non-transfected cells served as a negative transfection control and a positive control for cell growth.
Transfection efficiency was calculated by dividing the number of fluorescently labeled cells by the total number of cells and multiplying by 100. Cell confluency was used to measure the effect of each transfection condition on cell growth.

C[C@@H](O)[C@H](NC(=O)[C@H](CCC(=O)O)NC(=O)[C@H](Cc1c[nH]c2ccccc12)NC(=O)[C@H](Cc1c[nH]c2ccccc12)NC(=O)[C@@H](NC(=O)[C@H](CCC(=O)O)NC(=O)[C@@H](N)CCCCN)[C@@H](C)O)C(=O)N[C@@H](Cc1c[nH]c2ccccc12)C(=O)N[C@@H](Cc1c[nH]c2ccccc12)C(=O)N[C@H](C(=O)N[C@@H](CCC(=O)O)C(=O)N[C@@H](Cc1c[nH]c2ccccc12)C(=O)N[C@@H](CO)C(=O)N[C@@H](CCC(N)=O)C(=O)N1CCC[C@H]1C(=O)NCC(=O)N[C@@H](CCCNC(=N)N)C(=O)N[C@@H](CCCCN)C(=O)N[C@@H](CCCCN)C(=O)N[C@@H](CCCNC(=N)N)C(=O)N[C@@H](CCCNC(=N)N)C(=O)N[C@@H](CCC(N)=O)C(=O)N[C@@H](CCCNC(=N)N)C(=O)N[C@@H](CCCNC(=N)N)C(=O)N[C@@H](CCCNC(=N)N)C(=O)N1CCC[C@H]1C(=O)N1CCC[C@H]1C(=O)N[C@@H](CCC(N)=O)C(N)=O)[C@@H](C)O [PN183] (H-KETWWETWWTEWSQPGRKKRRQRRRPPQ-NH2)
% Cell Confluency 20 nM (lipid group 20 nM): 70%
% Cell Confluency 60 nM (lipid group 60 nM): 70%
